US10039741B2, “Use of delta tocopherol for the treatment of lysosomal storage disorders” (The United States of America, as represented by the …, priority 2010, dated 2018)
“Also recorded” adds a separate entry of the source.

Experiments:
NPCD fibroblasts = experiment: Filipin cholesterol staining assay; format: cell-based, human; settings: NPCD patient cells
Experimental: Filipin dye staining was used to determine the level of free cholesterol accumulation in cells (27, 28). Cells were seeded at 1000 cells/well in 100 μl medium in the black/clear bottom, tissue culture treated 96-well plates (Greiner Bio-One, Monroe, N.C.) for culture overnight or in a designated time. The cells were washed twice with the HBBS buffer and fixed with 100 μl/well 3.2% formaldehyde at room temperature for 30 minutes. After three times of plate wash with PBS buffer, cells were stained with 50 μg/ml filipin, which was freshly-dissolved in DMSO at 10 mg/ml and then diluted in PBS buffer. Samples were then washed twice with PBS buffer and stored in 4° C. On the day of imaging, cells were stained with 2 μM of CellMask Red (Invitrogen, H32711) in PBS at room temperature for 1 h. Samples were viewed and photographed using a Nikon Eclipse Ti microscope with a 20× objective equipped with CCD camera. DAPI filter and TRITC filter were used to visualize filipin and CellMask Red, respectively. The images were processed by Adobe Photoshop.

[1] = tested on: NPC patient-derived skin fibroblasts; experiment: Amplex red cholesterol assay (free cholesterol); format: cell-based, human
Excerpt: Free cholesterol accumulation in cells is a hallmark of NPC disease. The Amplex red cholesterol assay was used to screen an approved drug library in the NPC patient-derived skin fibroblasts that have free cholesterol accumulation in late endosome and lysosome. […] We then show δ-tocopherol in the filipin cholesterol staining assay, a method used clinically for NPCD diagnosis. […] Lysosome size is usually enlarged in the NPCD cells using a lysotracker staining assay.
The free cholesterol level in these cells was then measured by a cholesterol oxidase coupled HRP/amplex red detection method with a commercial available kit (Invitrogen). The cells were seeded to black, tissue culture-treated 1536-well plates (Greiner Bio-One, Monroe, N.C.) at 800 cells/well in 5 μl medium by a Multidrop Combi dispenser (Thermo Scientific, Waltham, Mass.) and cultured for 24 hours. The assay plates were added with 23 nl/well of compound DMSO solution using a pintool station (Kalypsys, San Diego, Calif.) and cultured for 3 days. The 1536-well assay plate was washed by a plate-inverted centrifugation method that removing medium by centrifuging plates upside down against a stack of paper towel at 1000 rpm for 1 min followed by addition of 7 μl/well PBS buffer, repeating for two times. The PBS buffer was added with a 45 degree angled dispenser (Kalypsys) or a Multi-Drop Combi dispenser set at medium speed to reduce disturbance to the cells. After the cell wash, 2.5 μl/well of detection mixture from the kit was added followed by 1 hour incubation at 37° C. With the addition of the detection mixture, the cells were lysed by the detergent containing buffer and free cholesterols in cell lysate were oxidized by cholesterol oxidase to produce H2O2 which reacting with amplex red dye in the presence of horseradish peroxidase to yield red fluorescence signal. A ViewLux plate reader (PerkinElmer, Boston, Mass.) was used to measure the fluorescent signal in assay plates with the excitation of 573 nm and emissions of 610 nm.

[2] = 9 additional fibroblast primary cells from different NPCD patients

For `Cc1cc(O)cc2c1O[C@](C)(CCC[C@H](C)CCC[C@H](C)CCCC(C)C)CC2` [δ-tocopherol], the “free cholesterol accumulation (filipin staining)” value (NPCD fibroblasts) was “significantly reduced”, the “effect compared with α-tocopherol” value [1, 2] was “more potent than that of α-tocopherol” and the “effect on cholesterol reduction” value [1, 2] was “confirmed”. For the same molecule, the “cholesterol amount (cholesterol reduction)” value ([1]; NPCD fibroblasts) was “significantly reduced”, the “potency compared with the other vitamin E isoforms” value ([1]; free cholesterol amount, filipin staining, lysotracker staining, NPCD fibroblasts) was “most potent of the eight isoforms of vitamin E; also recorded: more significant and potent than any of the other vitamin E isoforms” and the “effect compared with α-tocopherol” value ([1]; δ-tocopherol at 40 μM, NPC fibroblasts) was “more potent than α-tocopherol at 80 μM”.
